# What was measured:
# Test in all cases: Cell growth inhibition assay (Cell Titer Glo)
# Format in all cases: cell-based, human
# 600MPE = details: Luminal, 72 h
# Description: (§1) Cell culture: Breast cell lines were obtained from the ATCC and from collections developed in the laboratories of Drs. Steve Ethier and Adi Gazdar.
# (§2) Cell growth inhibition assay and data analysis: Cells were plated at proper density in 96-well plates such that they would remain in log growth at the end of assay time. The cells were allowed to attach overnight before being exposed to CGC-11047 for 72 h. Drugs were dissolved in water as 100 mM stock. For the dose response study, a set of 9 doses from 5×10^−3 to 1.3×10^−8 M (final concentration) in 1:5 serial dilution were added in triplicate wells. The final DMSO concentration in the treated well was 0.3% or less. The cell growth was determined using Cell Titer Glo (CTG) assay (CellTiter-Glo Luminescent Cell Viability Assay, Promega, Madison, Wis.), with slight modification form manufacturer's protocol, at day 0 (time when drug was added) and at day 3 of drug exposure. Briefly, CTG reagent was diluted with PBS (1:1, volume: volume) and the culture media was removed from the 96-well plate prior to adding 50 μl per well of the diluted CTG reagent. Luminescence from the assay was recorded using BIO-TEK FLx800.
# (§3) Data calculations were made according to the method described by the NCI/NIH DTP Human Tumor Cell Line Screen Process (http://dtp.nci.nih.gov/branches/btb/ivclsp.html) and as described previously (Monks, A et al., JNCI 83:757-766, 1991). The percent growth curve is calculated as [(T−T0)/(C−T0)]×100, where T0 is the cell count at day 0, C is the vehicle control (e.g. 0.3% DMSO without drug) cell count at day 3, and T is the cell count at the test concentration. The GI50 and TGI value are determined as the drug concentration that results in a 50% and 0% growth at 72 h drug exposure. LC50 is calculated as [(T−T0)/T0]×100=−50, when T<T0.
# AU565 = details: AU565, Luminal, 72 h
# Description: as §1, §2, §3
# BT474 = details: BT474, Luminal, 72 h
# Description: as §1, §2, §3
# BT483 = details: BT483, Luminal, 72 h
# Description: as §1, §2, §3
# CAMA1 = details: CAMA1, Luminal, 72 h
# Description: as §1, §2, §3
# HCC1143 = details: HCC1143, Basal A, 72 h
# Description: as §1, §2, §3
# HCC1500 = details: HCC1500, Basal B, 72 h
# Description: as §1, §2, §3
# HCC1569 = details: HCC1569, Basal A, 72 h
# Description: as §1, §2, §3
# HCC1937 = details: HCC1937, Basal A, 72 h
# Description: as §1, §2, §3
# HCC2185 = details: HCC2185, Luminal, 72 h
# Description: as §1, §2, §3
# HCC70 = details: HCC70, Basal A, 72 h
# Description: as §1, §2, §3
# LY2 = details: LY2, Luminal, 72 h
# Description: as §1, §2, §3
# MCF10A = details: N, Basal B, 72 h
# Description: as §1, §2, §3
# MCF10F = details: N, Basal A, 72 h
# Description: as §1, §2, §3
# MDAMB175VII = details: Luminal, 72 h
# Description: as §1, §2, §3
# MDAMB361 = details: MDAMB361, Luminal, 72 h
# Description: as §1, §2, §3
# MDAMB453 = details: MDAMB453, Luminal, 72 h
# Description: as §1, §2, §3
# MDAMB468 = details: MDAMB468, Basal A, 72 h
# Description: as §1, §2, §3
# S1 = details: S1, HMEC, 72 h
# Description: as §1, §2, §3
# SUM149PT = details: Basal B, 72 h
# Description: as §1, §2, §3
# SUM185PE = details: Luminal, 72 h
# Description: as §1, §2, §3
# SUM229PE = details: Basal B, 72 h
# Description: as §1, §2, §3
# SUM52PE = details: Luminal, 72 h
# Description: as §1, §2, §3
# UACC812 = details: UACC812, Luminal, 72 h
# Description: as §1, §2, §3
# ZR75B = details: Luminal, 72 h
# Description: as §1, §2, §3
compound,measurement,setting,value
CCNCCCNC/C=C\CNCCCNCC [CGC-11047],GI50,600MPE; Homo sapiens,2 µM
same,TGI,600MPE,2000 µM
same,TGI,AU565,>30 µM
same,GI50,AU565; Homo sapiens,40 µM
same,TGI,BT474,1000 µM
same,GI50,"BT474; Homo sapiens, BT-474",400 µM
same,TGI,BT483,1300 µM
same,GI50,"BT483; Homo sapiens, BT-483",900 µM
same,TGI,CAMA1,1100 µM
same,GI50,"CAMA1; Homo sapiens, CAMA-1",350 µM
same,TGI,HCC1143,320 µM
same,GI50,HCC1143; Homo sapiens,2 µM
same,TGI,HCC1500,600 µM
same,GI50,HCC1500; Homo sapiens,20 µM
same,TGI,HCC1569,2000 µM
same,GI50,HCC1569; Homo sapiens,220 µM
same,TGI,HCC1937,300 µM
same,GI50,HCC1937; Homo sapiens,0.8 µM
same,TGI,HCC2185,500 µM
same,GI50,HCC2185; Homo sapiens,90 µM
same,TGI,HCC70,0.53 µM
same,GI50,HCC70; Homo sapiens,0.4 µM
same,GI50,LY2; Homo sapiens,1300 µM
same,TGI,LY2,3000 µM
same,GI50,"MCF10A; Homo sapiens, MCF-10A",200 µM
same,TGI,MCF10A,3300 µM
same,GI50,"MCF10F; Homo sapiens, MCF-10F",100 µM
same,TGI,MCF10F,1100 µM
same,GI50,"MDAMB175VII; Homo sapiens, MDA-MB-175-VII",1000 µM
same,TGI,MDAMB175VII,2000 µM
same,GI50,"MDAMB361; Homo sapiens, MDA-MB-361",600 µM
same,TGI,MDAMB361,2000 µM
same,GI50,"MDAMB453; Homo sapiens, MDA-MB-453",500 µM
same,TGI,MDAMB453,>500 µM
same,GI50,"MDAMB468; Homo sapiens, MDA-MB-468",0.5 µM
same,TGI,MDAMB468,2000 µM
same,GI50,S1; Homo sapiens,0.8 µM
same,TGI,S1,3000 µM
same,TGI,SUM149PT,800 µM
same,GI50,SUM149PT; Homo sapiens,2 µM
same,GI50,SUM185PE; Homo sapiens,300 µM
same,TGI,SUM185PE,>500 µM
same,TGI,SUM229PE,1100 µM
same,GI50,SUM229PE; Homo sapiens,90 µM
same,GI50,SUM52PE; Homo sapiens,10 µM
same,TGI,SUM52PE,300 µM
same,GI50,"UACC812; Homo sapiens, UACC-812",21 µM
same,TGI,UACC812,300 µM
same,GI50,"ZR75B; Homo sapiens, ZR-75B",200 µM
same,TGI,ZR75B,2000 µM
